{"source": "patent US9320773B2", "about": "“Compounds and therapeutic applications related to inhibition of dendritic cell immunoreceptor (DCIR) activity and signaling events” (priority 2010, dated 2016)", "key": {"[1]": {"tested_on": "human primary CD4+ T cells", "assay": "Apoptosis of HIV-1-infected and bystander CD4+ T cells (FITC-VAD-FMK staining)", "format": "cell-based", "conditions": "NL4-3-IRES-HSA infected CD4+ T cells; data not shown", "from_the_text": "The HIV-1-mediated induction of apoptosis in both infected and bystander CD4^+ T cells is a well-described phenomenon. The peak of apoptosis is observed usually after 2 to 3 days, the same time frame in which we detected the HIV-1-dependent induction of DCIR. Therefore, we next assessed whether there might be a connection between the virus-induced DCIR expression and apoptosis. We initially assessed the ability of NL4-3-IRES-HSA reporter virus to drive apoptosis in CD4^+ T cells using FITC-VAD-FMK staining. This fluorochrome-labeled pan-caspase inhibitor is a specific and convenient-to-use marker of apoptotic cells, which can identify very early events of apoptosis associated with caspase activation (i.e. pre-apoptotic cells). Our studies indicate that NL4-3-IRES-HSA virions can potently mediate apoptosis in human primary CD4^+ T cells (data not shown). […] To establish a link between DCIR expression and apoptosis following HIV-1 infection, we carried out a series of investigations with the broad-spectrum caspase inhibitor Z-VAD-FMK [94]."}, "[2]": {"tested_on": "DCIR expression in CD4+ T cells", "assay": "HIV-1-mediated induction of DCIR expression in CD4+ T cells (flow cytometry)", "format": "cell-based, human", "conditions": "cells pre-treated before virus infection, 3 days; result in words", "description": "Mitogen-activated CD4^+ T cells (1×10^6) were first either left untreated or treated for 1 h with the caspase inhibitor Z-VAD-FMK (50 nM), after which HIV-1 was added (100 ng of p24), where indicated. DCIR expression was monitored 3 days later by flow cytometry. Data shown represent the means±SD of triplicate samples from three independent experiments.\nCells (1×10^6) were first either left untreated or treated for 1 h with NAC, after which HIV-1 (100 ng of p24) was added. DCIR expression was monitored 3 days later by flow cytometry. Expression of DCIR is shown as a dotted line, whereas the continuous line represents staining obtained with an isotype-matched irrelevant control Ab. Data shown correspond to a single experiment representative of 3 independent experiments.\nCell surface expression of DCIR was monitored by flow cytometric analysis (Epics ELITE ESP, Coulter Electronics, Burlington, Canada). Cells (1×10^6 cells) were incubated for 30 min with a pool of human serum to block the unspecific binding. After washing, the cells were incubated with PE-labeled anti-DCIR (0.25 μg) for 45 min at 4° C. and then washed twice with PBS and 0.5% BSA. Non-specific staining was determined by using an isotype-matched irrelevant control antibody. After two final washes with PBS, cells were fixed in 2% paraformaldehyde for 30 min and analyzed."}, "[3]": {"tested_on": "DCIR expression in CD4+ T cells", "assay": "DCIR expression in CD4+ T cells after H2O2 or other apoptosis inducers (flow cytometry)", "format": "cell-based, human", "description": "Next, DCIR expression was assessed by flow cytometry. Data shown represent the ratio of DCIR expression over basal expression. The ratio is calculated from the means±SD of triplicate samples from three independent experiments. […] FIG. 16A: […] Expression of DCIR is shown as a dotted line, whereas the continuous line represents staining obtained with an isotype-matched irrelevant control Ab. Data shown correspond to a single experiment representative of 3 independent experiments. FIG. 16B: […] Thereafter, DCIR surface expression and caspase activation were monitored by flow cytometric analysis using a double-staining method consisting of FITC-VAD-FMK followed by the R-PE-conjugated anti-DCIR. Data shown correspond to a single experiment representative of 4 independent experiments. Cell surface expression of DCIR was monitored by flow cytometric analysis (Epics ELITE ESP, Coulter Electronics, Burlington, Canada). […] After washing, the cells were incubated with PE-labeled anti-DCIR (0.25 μg) for 45 min at 4° C. and then washed twice with PBS and 0.5% BSA. Non-specific staining was determined by using an isotype-matched irrelevant control antibody. After two final washes with PBS, cells were fixed in 2% paraformaldehyde for 30 min and analyzed."}, "CD4+ T cells": {"tested_on": "CD4+ T cells", "assay": "Cell toxicity / viability of CD4+ T cells", "format": "cell-based, human", "conditions": "mitogen-stimulated CD4+ T cells; data not shown"}, "DC-SIGN": {"tested_on": "DC-SIGN", "conditions": "induction of apoptosis by H2O2; data not shown"}, "CD4": {"tested_on": "CD4", "conditions": "induction of apoptosis by H2O2; data not shown"}, "[4]": {"tested_on": "HIV-1 NL4-3 in CD4+ T cells", "description": "Target CD4^+ T cells (1×10^6) were treated for 16 h with H2O2 (30 μM) to induce surface expression of DCIR. FIG. 17A: Cells were next exposed to NL4-3 (100 ng of p24) for 1 h at 37° C., extensively washed to remove unabsorbed virons before assessing the p24 content. FIG. 17B: Cells were first incubated with NL4-3 (100 ng of p24) for 2 h at 37° C., washed extensively to remove input virus and cultured in complete culture RPMI-1640 medium supplemented with rhIL-2 for the indicated number of days. Cell-free supernatants were collected and assayed for the p24 content. FIG. 17C: Cells were exposed to NL4-3 (100 ng of p24) for 2 h at 37° C., next washed extensively to remove input virus, and finally co-cultured with autologous CD4^+ T cells in complete culture RPMI-1640 medium supplemented with rhIL-2 for the indicated number of days. Cell-free supernatants were collected and assayed for the p24 content. Virus production at day 2 is depicted in the small inserts (FIGS. 17B and C). FIG. 17D: Cells were exposed to NL4-3 (100 ng of p24) for 2 h at 37° C., washed extensively to remove input virus, and maintained in complete culture medium supplemented with rhIL-2 for 3 days. Next, DCIR-negative and -positive cells (used as transmitter cells) were isolated with magnetic beads and co-cultured with uninfected CD4^+ T cells (used as recipient cells). […]"}, "[5]": {"tested_on": "HIV-1 NL4-3 in Raji-CD4 cells", "assay": "HIV-1 binding/entry assay in parental Raji-CD4 cells (DCIR-negative)", "format": "cell-based", "conditions": "pretreated with inhibitor 10 min, result in words", "description": "FIG. 2A: Raji-CD4 and Raji-CD4-DCIR cells were either left untreated or treated with SSG (100 μg/ml) for 10 min at 37° C. Thereafter, cells were pulsed with NL4-3 for 60 min. After three washes with PBS to remove non-adsorbed virus, cell-associated virus was quantified by measuring the p24 content. Data shown correspond to the means±SD of triplicate samples from three combined independent experiments. The asterisk denotes statistically significant data (*, P<0.05; **, P<0.01). FIG. 2B: Cells were either left untransfected or transfected with a sense or antisense oligonucleotide specific for the signalling protein of interest. Next, cells were pulsed with NL4-3 for 60 min. After three washes with PBS to eliminate unbound virus, cell-associated virus was quantified by measuring the p24 content. Data shown correspond to the means±SD of triplicate samples from three combined independent experiments. The asterisk denotes statistically significant data (*, P<0.05; **, P<0.01). […]\nWhere indicated, parental Raji-CD4 cells (DCIR-negative) or Raji-CD4-DCIR transfectants (1×10^6) were pretreated with the indicated amount of a pharmacological inhibitor for 10 min or transfected with sense or antisense oligonucleotides as described below. […] To assess binding/entry, the p24 content was determined by our in-house ELISA assay^33."}, "[6]": {"tested_on": "HIV-1 NL4-3 in Raji-CD4-DCIR cells", "assay": "HIV-1 binding/entry assay in Raji-CD4-DCIR cells (cell-associated p24 ELISA)", "format": "cell-based", "conditions": "cells pretreated with inhibitor 10 min, pulsed with NL4-3 60 min; result in words", "description": "FIG. 2A: Raji-CD4 and Raji-CD4-DCIR cells were either left untreated or treated with SSG (100 μg/ml) for 10 min at 37° C. Thereafter, cells were pulsed with NL4-3 for 60 min. After three washes with PBS to remove non-adsorbed virus, cell-associated virus was quantified by measuring the p24 content. Data shown correspond to the means±SD of triplicate samples from three combined independent experiments. The asterisk denotes statistically significant data (*, P<0.05; **, P<0.01). FIG. 2B: Cells were either left untransfected or transfected with a sense or antisense oligonucleotide specific for the signalling protein of interest. Next, cells were pulsed with NL4-3 for 60 min. After three washes with PBS to eliminate unbound virus, cell-associated virus was quantified by measuring the p24 content. Data shown correspond to the means±SD of triplicate samples from three combined independent experiments. The asterisk denotes statistically significant data (*, P<0.05; **, P<0.01). After gene silencing, the diminution of the targeted protein was verified by western blots, provided as an insert for each graph.\nWhere indicated, parental Raji-CD4 cells (DCIR-negative) or Raji-CD4-DCIR transfectants (1×10^6) were pretreated with the indicated amount of a pharmacological inhibitor for 10 min or transfected with sense or antisense oligonucleotides as described below. Cells were then pulsed with NL4-3 (100 ng of p24) for 60 min at 37° C. Next the virus-cell mixture was washed 3 times with PBS to remove unbound virus and resuspended in PBS containing 1% BSA. To assess binding/entry, the p24 content was determined by our in-house ELISA assay^33.\nRaji-CD4 and Raji-CD4-DCIR cells (1×10^6 cells) were washed with OptiMEM (Invitrogen Life Technologies) without serum and antibiotics. The phosphorothioate oligodeoxynucleotides (Listed in Table 1) (Invitrogen Life Technologies) were transfected at a final concentration of 10 μM/well^35 using Oligofectamine according to the manufacturer's instructions (Invitrogen Life Technologies). Silencing efficiency was monitored by western blot analysis."}}}
{"smiles": "O=C1Nc2ccc(Cl)cc2[C@@](C#CC2CC2)(C(F)(F)F)O1", "note": "[EFV, efavirenz]", "values": [{"measurement": "percentages of apoptotic cells in virus-infected and bystander cells", "setting": "[1]", "value": "significantly reduced"}, {"measurement": "HIV-1-mediated DCIR expression", "setting": "[2]", "value": "reduced significantly"}]}
{"smiles": "OO", "note": "[H2O2, Hydrogen peroxide]", "values": [{"measurement": "DCIR expression", "setting": "[3]; CD4+ T cells treated with inducer, H2O2 20 to 60 μM, result in words", "value": "dose-dependent increased"}, {"measurement": "DCIR expression in activated CD4+ T cells", "setting": "[3]; H2O2-treated cells (30 μM, 16 h), n=3", "value": "21.4±3.4", "unit": "%"}, {"measurement": "apoptotic cells also positive for DCIR", "setting": "[3]; H2O2 treatment, FITC-VAD-FMK and anti-DCIR double staining, n=3", "value": "12.2±3.2", "unit": "%"}, {"measurement": "doses at which cell viability was reduced", "setting": "CD4+ T cells", "value": "≥ 45", "unit": "µM"}, {"measurement": "surface expression of DC-SIGN", "setting": "DC-SIGN", "value": "not modulated"}, {"measurement": "surface expression of CD4", "setting": "CD4", "value": "not modulated"}, {"measurement": "virus production", "setting": "[4]", "value": "statistically significant increase"}, {"measurement": "virus binding and entry, p24", "setting": "[4]; CD4+ T cells exposed to H2O2 (30 μM, 16 h), 3.8±0.8 without H2O2", "value": "12.5±1.8 ng/ml of p24"}]}
{"smiles": "O.O.O.O.O.O.O.O.O.O=C([O-])[C@@H]1[O][Sb]2([O-])([O][Sb]34([OH])[O][C@H]([C@H](O)CO)[C@H]([O]3)[C@H](C(=O)[O-])[O]4)[O][C@H]([C@H](O)CO)[C@@H]1[O]2.[Na+].[Na+].[Na+]", "note": "[SSG, sodium stibogluconate]", "values": [{"measurement": "HIV-1 binding/entry", "setting": "[5]", "value": "no similar effect"}, {"measurement": "HIV-1 binding/entry", "setting": "[6]", "value": "decreases"}]}
